Experimental data published in ChEMBL document CHEMBL1142884, “Inhibition of horseradish peroxidase catalytic activity by new 3-phenylcoumarin derivatives: synthesis and structure-activity relationships” (Bioorg Med Chem, 2007).
pIC50: −log10 of the molar value.

Columns and labels:
[1] = DPPH radical scavenging activity; type: functional
[2] = Inhibition of horseradish peroxidase catalytic activity by luminol-enhanced chemiluminescence assay; parameters: species or system Armoracia rusticana

| Structure (SMILES) | pIC50 [1] | pIC50 [2] |
| --- | --- | --- |
| O=c1oc2ccc(O)cc2cc1-c1ccccc1O | 4.60 | 4.61 |
| CC(=O)Oc1ccc(-c2cc3cc(OC(C)=O)c(OC(C)=O)cc3oc2=O)cc1OC(C)=O |  | 4.55 |

Results, then the molecule that gave them:

| pIC50 [1] | pIC50 [2] | Structure (SMILES) |
| --- | --- | --- |
| 4.57 | 5.55 | O=c1oc2ccc(O)cc2cc1-c1ccc(O)c(O)c1 |
| 4.88 | 5.47 | O=c1oc2cc(O)c(O)cc2cc1-c1ccc2c(c1)OCO2 |
| 5.01 | 5.92 | O=c1oc2cc(O)c(O)cc2cc1-c1ccc(O)c(O)c1 |
